Measurements reported in US9963434B2, “N-arylmethyl sulfonamide negative modulators of NR2A” (LUC THERAPEUTICS, priority 2013, dated 2018).
Where two headings read alike, the source gives them in different places.

Biological target: NR1/NR2A (Homo sapiens (Human), UniProt Q05586+Q12879)
Experiment: FDSS Ca2+ influx inhibition assay in HEK293 cells expressing NR1/NR2A
Assay type: cell-based
Details: 3 μM glutamate, 3 μM glycine, 1 mM Ca2+
In short: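 Fluo-8-loaded HEK293 NR1/NR2A cells preincubated 10 min with compound at 10 μM final (0.1% DMSO) in Ca2+/Mg2+-free HBSS with 20 mM HEPES. Stimulated with 3 μM glutamate, 3 μM glycine, 1 mM Ca2+; FDSS recording for 3 min, end/baseline fluorescence ratio compared with MK801.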

[1] = inhibition relative to MK801, read-out: NR2A IC50

Chain of NR1/NR2A (Q12879 23-1464, other chains not shown): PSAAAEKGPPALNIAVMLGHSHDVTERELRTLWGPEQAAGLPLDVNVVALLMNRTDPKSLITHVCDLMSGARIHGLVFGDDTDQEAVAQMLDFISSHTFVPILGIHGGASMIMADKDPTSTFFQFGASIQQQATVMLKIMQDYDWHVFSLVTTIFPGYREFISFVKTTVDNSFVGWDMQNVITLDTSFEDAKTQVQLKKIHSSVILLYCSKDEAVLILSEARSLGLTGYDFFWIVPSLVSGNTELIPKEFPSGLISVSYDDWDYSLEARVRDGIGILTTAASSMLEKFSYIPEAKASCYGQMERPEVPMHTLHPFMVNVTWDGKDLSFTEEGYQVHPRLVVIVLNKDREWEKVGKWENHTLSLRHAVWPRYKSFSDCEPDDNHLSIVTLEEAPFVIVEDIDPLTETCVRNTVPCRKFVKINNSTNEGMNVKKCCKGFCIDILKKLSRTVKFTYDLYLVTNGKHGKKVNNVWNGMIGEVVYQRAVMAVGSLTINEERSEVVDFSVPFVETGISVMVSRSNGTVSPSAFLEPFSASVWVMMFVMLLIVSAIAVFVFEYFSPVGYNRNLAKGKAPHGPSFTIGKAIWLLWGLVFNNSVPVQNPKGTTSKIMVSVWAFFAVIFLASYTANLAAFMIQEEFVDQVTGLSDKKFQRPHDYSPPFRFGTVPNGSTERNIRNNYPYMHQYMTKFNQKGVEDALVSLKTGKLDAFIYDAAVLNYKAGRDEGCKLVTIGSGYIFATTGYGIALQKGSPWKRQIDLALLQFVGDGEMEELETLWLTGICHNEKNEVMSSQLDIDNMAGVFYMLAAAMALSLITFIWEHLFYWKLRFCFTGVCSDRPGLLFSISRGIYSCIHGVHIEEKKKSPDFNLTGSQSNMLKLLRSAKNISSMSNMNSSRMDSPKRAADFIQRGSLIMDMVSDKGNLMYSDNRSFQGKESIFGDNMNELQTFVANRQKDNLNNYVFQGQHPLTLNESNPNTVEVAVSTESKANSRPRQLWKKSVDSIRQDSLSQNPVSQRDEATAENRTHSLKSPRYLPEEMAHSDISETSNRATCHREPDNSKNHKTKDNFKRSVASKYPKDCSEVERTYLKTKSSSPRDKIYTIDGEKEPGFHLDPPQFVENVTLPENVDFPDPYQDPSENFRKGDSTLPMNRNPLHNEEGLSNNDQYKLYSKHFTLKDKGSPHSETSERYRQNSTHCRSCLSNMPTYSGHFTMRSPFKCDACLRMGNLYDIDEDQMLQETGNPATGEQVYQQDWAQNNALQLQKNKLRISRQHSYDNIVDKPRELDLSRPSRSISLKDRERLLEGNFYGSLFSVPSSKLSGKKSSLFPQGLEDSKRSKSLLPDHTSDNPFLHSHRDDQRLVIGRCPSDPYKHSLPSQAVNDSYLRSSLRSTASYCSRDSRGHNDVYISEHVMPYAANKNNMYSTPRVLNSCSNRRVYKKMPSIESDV

IC50 [1] | IC50 (read-out: Binned Activity) | SMILES
10 µM | > 10 µM | Cc1ncc(CNC(=O)c2ccc(CNS(=O)(=O)c3ccn(C)n3)cn2)s1 [N-[(2-methyl-1,3-thiazol-5-yl)methyl]-5-(1-methyl-1H-pyrazole-3-sulfonamidomethyl) pyridine-2-carboxamide]
10 µM | > 10 µM | Cc1ncc(CNC(=O)c2cnc(CNS(=O)(=O)c3ccc(Oc4ccccc4)nc3)cn2)s1 [N-[(2-methyl-1,3-thiazol-5-yl)methyl]-5-(6-phenoxypyridine-3-sulfonamidomethyl) pyrazine-2-carboxamide]
10 µM | > 10 µM | Cc1ncc(CNC(=O)c2ccc(CNS(=O)(=O)c3ccc(Oc4ccccc4)nc3)cn2)s1 [N-[(2-methyl-1,3-thiazol-5-yl)methyl]-5-(6-phenoxypyridine-3-sulfonamidomethyl) pyridine-2-carboxamide]
10 µM | > 10 µM | Cc1ncc(CNC(=O)c2ccc(CNS(=O)(=O)c3cccc4cccnc34)cn2)s1 [N-[(2-methyl-1,3-thiazol-5-yl)methyl]-5-(quinoline-8-sulfonamidomethyl) pyridine-2-carboxamide]
 | 1 to 10 µM | Cc1ncc(CNC(=O)c2cnc(CNS(=O)(=O)c3cccs3)cn2)s1 [N-[(2-methyl-1,3-thiazol-5-yl)methyl]-5-(thiophene-2-sulfonamidomethyl) pyrazine-2-carboxamide]
 | 1 to 10 µM | Cc1ncc(CNC(=O)c2ccc(CNS(=O)(=O)c3cccs3)cn2)s1 [N-[(2-methyl-1,3-thiazol-5-yl)methyl]-5-(thiophene-2-sulfonamidomethyl) pyridine-2-carboxamide]
10 µM | > 10 µM | Cc1ncc(CNC(=O)c2cnc(CNS(=O)(=O)c3ccsc3)cn2)s1 [N-[(2-methyl-1,3-thiazol-5-yl)methyl]-5-(thiophene-3-sulfonamidomethyl) pyrazine-2-carboxamide]
10 µM | > 10 µM | Cc1ncc(CNC(=O)c2ccc(CNS(=O)(=O)c3ccsc3)cn2)s1 [N-[(2-methyl-1,3-thiazol-5-yl)methyl]-5-(thiophene-3-sulfonamidomethyl) pyridine-2-carboxamide]
10 µM | > 10 µM | Cc1ncc(CNC(=O)c2ccc(CNS(=O)(=O)c3ccc(-c4csnn4)cc3)cn2)s1 [N-[(2-methyl-1,3-thiazol-5-yl)methyl]-5-[4-(1,2,3-thiadiazol-4-yl)benzenesulfonamido-methyl]pyridine-2-carboxamide]
10 µM | > 10 µM | Cc1ncc(CNC(=O)c2ccc(CNS(=O)(=O)c3ccc(C(F)(F)F)cc3)cn2)s1 [N-[(2-methyl-1,3-thiazol-5-yl)methyl]-5-[4-(trifluoromethyl)benzene-sulfonamidomethyl] pyridine-2-carboxamide]
10 µM | > 10 µM | Cc1ncc(CNC(=O)c2ccc(CNS(=O)(=O)c3ccc(C(F)(F)F)nc3)cn2)s1 [N-[(2-methyl-1,3-thiazol-5-yl)methyl]-5-[6-(trifluoromethyl)pyridine-3-sulfonamidomethyl] pyridine-2-carboxamide]
10 µM | > 10 µM | O=C(NCc1ccc(Cl)c(F)c1)c1ccc(CNS(=O)(=O)c2ccc(F)c(Cl)c2)cn1 [N-[(4-chloro-3-fluorophenyl)methyl]-5-(3-chloro-4-fluorobenzenesulfon-amidomethyl)pyridine-2-carboxamide]
